Measured values taken from patent US20260274895A1, “DE NOVO DESIGNED MEMBRANE-TRAVERSING AND ORALLY BIOAVAILABLE MACROCYCLES” (UNIVERSITY OF WASHINGTON, priority 2022, published 2026).
Where a SMILES comes first, the peptide text is derived from it. [ ]: non-standard residue; d: D form. NMeF = CN[C@@H](Cc1ccccc1)C(=O)O; dNMeF = CN[C@H](Cc1ccccc1)C(=O)O; NMeL = CN[C@@H](CC(C)C)C(=O)O; dNMeL = CN[C@H](CC(C)C)C(=O)O; dNMeV = CN[C@@H](C(=O)O)C(C)C; NMeV = CN[C@H](C(=O)O)C(C)C; NMeA = CN[C@@H](C)C(=O)O; dNMeA = CN[C@H](C)C(=O)O; Aib = CC(C)(N)C(=O)O

Settings: for PAMPA_Papp_Avg (apparent permeability): PAMPA

SMILES | PAMPA_Papp_Avg (apparent permeability) | membrane permeability in PAMPA (in words)
CC(C)[C@@H]1C(=O)N[C@@H](Cc2ccccc2)C(=O)N2CCC[C@H]2C(=O)N(C)[C@H](Cc2ccccc2)C(=O)N[C@H](C)C(=O)N2CCC[C@H]2C(=O)N1C (single isomer, unassigned) [Design D6.8.p2, *faP*vFP] | 1.77 ×10⁻⁶ cm/s | –
CC(C)C[C@H]1C(=O)N2CCC[C@@H]2C(=O)N[C@@H](Cc2ccccc2)C(=O)N2CCC[C@H]2C(=O)N[C@H](C(C)C)C(=O)N[C@H](Cc2ccccc2)C(=O)N1C (single isomer, unassigned) [Design D6.9.p2, vf*LpFP] | 6.77 ×10⁻⁶ cm/s | –
CC[C@@H](C)[C@H]1NC(=O)[C@@H](Cc2ccccc2)NC(=O)[C@@H]2CCCN2C(=O)[C@@H]([C@H](C)CC)NC(=O)[C@@H](Cc2ccccc2)NC(=O)[C@@H]2CCCN2C1=O [Design D6.1, iPfiPf] (cyclo(P[dF][dI]P[dF][dI])) | 3.34 ×10⁻⁶ cm/s | –
CC[C@@H](C)[C@H]1NC(=O)[C@@H](Cc2ccccc2)N(C)C(=O)[C@@H]2CCCN2C(=O)[C@@H]([C@H](C)CC)NC(=O)[C@@H](Cc2ccccc2)N(C)C(=O)[C@@H]2CCCN2C1=O [Design D6.2, iP*fiP*f] (cyclo(P[dNMeF][dI]P[dNMeF][dI])) | 12.2 ×10⁻⁶ cm/s | –
CC(C)C[C@H]1NC(=O)[C@@H]2CCCN2C(=O)[C@@H]2CCCN2C(=O)[C@@H](C)NC(=O)[C@@H](Cc2ccccc2)NC(=O)[C@H]2CCCN2C1=O [Design D6.3, pfaPpl] (cyclo(PP[dL][dP][dF][dA])) | 1.99 ×10⁻⁶ cm/s | –
CC(C)C[C@H]1NC(=O)[C@@H]2CCCN2C(=O)[C@@H]2CCCN2C(=O)[C@@H](C)NC(=O)[C@@H](Cc2ccccc2)N(C)C(=O)[C@H]2CCCN2C1=O [Design D6.4, p*faPPl] (cyclo(PP[dL][dP][dNMeF][dA])) | 13.9 ×10⁻⁶ cm/s | –
CC(C)[C@@H]1NC(=O)[C@@H]2CCCN2C(=O)[C@@H]2CCCN2C(=O)[C@@H](Cc2ccccc2)NC(=O)[C@@H]2CCCN2C(=O)[C@@H](Cc2ccccc2)NC1=O [Design D6.5, PPVfPf] (cyclo(PPV[dF]P[dF])) | 2.41 ×10⁻⁶ cm/s | –
CC(C)[C@H]1C(=O)N[C@H](Cc2ccccc2)C(=O)N2CCC[C@H]2C(=O)N[C@H](Cc2ccccc2)C(=O)N2CCC[C@H]2C(=O)N2CCC[C@H]2C(=O)N1C [Design D6.6, PP*VfPf] (cyclo([NMeV][dF]P[dF]PP)) | 3.64 ×10⁻⁶ cm/s | –
CC(C)[C@H]1NC(=O)[C@@H]2CCCN2C(=O)[C@@H](C)NC(=O)[C@@H](Cc2ccccc2)NC(=O)[C@@H]2CCCN2C(=O)[C@H](Cc2ccccc2)NC1=O [Design D6.7, faPvFP] (cyclo(FP[dF][dA]P[dV])) | 0.424 ×10⁻⁶ cm/s | –
CC(C)C[C@H]1C(=O)N2CCC[C@@H]2C(=O)N[C@@H](Cc2ccccc2)C(=O)N2CCC[C@H]2C(=O)N(C)[C@H](C(C)C)C(=O)N[C@H](Cc2ccccc2)C(=O)N1C [Design D6.10, *vf*LpFP] (cyclo(FP[dNMeV][dF][NMeL][dP])) | 11.6 ×10⁻⁶ cm/s | –
CC[C@H](C)[C@@H]1NC(=O)[C@H]2CCCN2C(=O)[C@@H]2CCCN2C(=O)[C@H](CC(C)C)NC(=O)[C@@H](C(C)C)NC(=O)[C@@H](CC(C)C)N(C)C(=O)[C@@H]2CCCN2C1=O [Design D7.1, P*lvLPpI] (cyclo(IP[dNMeL][dV]LP[dP])) | 2.93 ×10⁻⁶ cm/s | –
CC(C)C[C@@H]1NC(=O)[C@@H](CC(C)C)NC(=O)[C@H]2CCCN2C(=O)[C@@H]2CCCN2C(=O)[C@@H](CC(C)C)NC(=O)[C@@H](CC(C)C)N(C)C(=O)[C@@H]2CCCN2C1=O [Design D7.5, LP*llPpl] (cyclo(LP[dNMeL][dL]P[dP][dL])) | 6.64 ×10⁻⁶ cm/s | –
CC(C)C[C@@H]1NC(=O)[C@@H]2CCCN2C(=O)[C@H]2CCCN2C(=O)[C@H](CC(C)C)NC(=O)[C@H](C)N(C)C(=O)[C@H]2CCCN2C(=O)[C@@H](CC(C)C)NC1=O [Design D7.6, lp*ALpPL] (cyclo(L[dL][dP][NMeA]L[dP]P)) | 3.62 ×10⁻⁶ cm/s | –
CC[C@H](C)[C@@H]1NC(=O)[C@H](Cc2ccccc2)N(C)C(=O)[C@H]2CCCN2C(=O)[C@H]([C@@H](C)CC)NC(=O)[C@H](C(C)C)NC(=O)[C@@H](C)NC(=O)[C@H]2CCCN2C1=O [Design D7.9, VIp*FIpa] (cyclo(I[dP][NMeF]I[dP][dA]V)) | 7.09 ×10⁻⁶ cm/s | –
CC(C)C[C@@H]1NC(=O)[C@@H](CC(C)C)NC(=O)[C@H]2CCCN2C(=O)[C@H](CC(C)C)NC(=O)[C@@H](CC(C)C)NC(=O)[C@H](CC(C)C)NC(=O)[C@@H]2CCCN2C(=O)[C@@H](C)NC1=O [Design D8.1, lLplLaPL] (cyclo(L[dA]PL[dL]L[dP][dL])) | 6.94 ×10⁻⁶ cm/s | most permeable 8 residue design in PAMPA
CC[C@@H](C)[C@H]1NC(=O)[C@@H](CC(C)C)NC(=O)C(C)(C)NC(=O)[C@@H]2CCCN2C(=O)[C@@H]([C@H](C)CC)NC(=O)[C@@H](CC(C)C)NC(=O)C(C)(C)NC(=O)[C@@H]2CCCN2C1=O [Design D8.2, PBliPBLi] (cyclo([Aib][dL][dI]P[Aib][dL][dI]P)) | 7.49 ×10⁻⁶ cm/s | –
CC(C)C[C@@H]1NC(=O)[C@H]2CCCN2C(=O)[C@@H]2CCCN2C(=O)[C@H](CC(C)C)NC(=O)[C@@H](CC(C)C)NC(=O)[C@@H](C)N(C)C(=O)[C@@H](C)N(C)C(=O)[C@@H](C(C)C)NC1=O [Design D8.6, LPpLv*a*al] (cyclo(LP[dP]L[dV][dNMeA][dNMeA][dL])) | 3.35 ×10⁻⁶ cm/s | –
CC[C@@H](C)[C@H]1NC(=O)[C@@H](CC(C)C)N(C)C(=O)[C@@H]2CCCN2C(=O)[C@@H]([C@H](C)CC)NC(=O)[C@@H](CC(C)C)NC(=O)[C@@H](CC(C)C)N(C)C(=O)[C@@H]2CCCN2C(=O)[C@@H](C(C)C)NC1=O [Design D8.8, P*lliP*liv] (cyclo(P[dNMeL][dI][dV]P[dNMeL][dL][dI])) | 5.9 ×10⁻⁶ cm/s | –

Results, then the compound that gave them:

PAMPA_Papp_Avg (apparent permeability) | membrane permeability in PAMPA (in words) | SMILES
0.879 ×10⁻⁶ cm/s | – | CC(C)C[C@@H]1C(=O)N(C)[C@@H](CC(C)C)C(=O)N2CCC[C@@H]2C(=O)N[C@H](CC(C)C)C(=O)N[C@H](C)C(=O)N2CCC[C@@H]2C(=O)N2CCC[C@H]2C(=O)N[C@@H](C)C(=O)N[C@H](Cc2ccccc2)C(=O)N[C@H](CC(C)C)C(=O)N[C@@H](C(C)C)C(=O)N1C (single isomer, unassigned) [Design D11.9.p1, V*l*LplapPAfl]
2.09 ×10⁻⁶ cm/s | – | CC(C)C[C@@H]1C(=O)N(C)[C@@H](CC(C)C)C(=O)N2CCC[C@@H]2C(=O)N[C@H](CC(C)C)C(=O)N[C@H](C)C(=O)N2CCC[C@@H]2C(=O)N2CCC[C@H]2C(=O)N[C@@H](C)C(=O)N[C@H](Cc2ccccc2)C(=O)N[C@H](CC(C)C)C(=O)N[C@@H](C(C)C)C(=O)N1C (single isomer, unassigned) [Design D11.9.p2, V*l*LplapPAfl]
1.23 ×10⁻⁶ cm/s | – | CC(C)C[C@@H]1C(=O)N[C@H](CC(C)C)C(=O)N2CCC[C@@H]2C(=O)N2CCC[C@@H]2C(=O)N(C)[C@@H](C)C(=O)N[C@H](Cc2ccccc2)C(=O)N[C@@H](C)C(=O)N(C)[C@@H](CC(C)C)C(=O)N1C [Design D8.10, pp*AfA*L*ll] (cyclo(A[NMeL][dNMeL][dL][dP][dP][NMeA][dF]))
2.16 ×10⁻⁶ cm/s | – | CC[C@H](C)[C@@H]1NC(=O)[C@@H](C(C)C)NC(=O)[C@H](CC(C)C)N(C)C(=O)[C@H]2CCCN2C(=O)[C@H]2CCCN2C(=O)[C@H](C(C)C)NC(=O)[C@@H](CC(C)C)NC(=O)[C@H]2CCCN2C1=O [Design D8.16, plVpp*LvI] (cyclo(I[dP][dL]V[dP][dP][NMeL][dV]))
1.04 ×10⁻⁶ cm/s | – | CC[C@@H](C)[C@H]1NC(=O)[C@@H]2CCCN2C(=O)[C@@H](CC(C)C)N(C)C(=O)[C@@H](C(C)C)NC(=O)[C@@H]2CCCN2C(=O)[C@@H](CC(C)C)N(C)C(=O)[C@H](C)N(C)C(=O)[C@@H](C)NC1=O [Design D8.18, ia*A*lPv*lP] (cyclo([NMeA][dNMeL]P[dV][dNMeL]P[dI][dA]))
1.08 ×10⁻⁶ cm/s | – | CC(C)C[C@@H]1C(=O)N(C)[C@H](Cc2ccccc2)C(=O)N(C)[C@@H](CC(C)C)C(=O)N[C@H](C(C)C)C(=O)N[C@H](C)C(=O)N2CCC[C@@H]2C(=O)N2CCC[C@H]2C(=O)N[C@H](C)C(=O)N1C [Design D8.20, Pa*l*f*Lvap] (cyclo([dA][dNMeL][dNMeF][NMeL][dV][dA][dP]P))
– | significant permeability | CC(C)C[C@@H]1NC(=O)[C@H]2CCCN2C(=O)[C@H](CC(C)C)N(C)C(=O)[C@@H](C(C)C)NC(=O)[C@H](CC(C)C)NC(=O)[C@H]2CCCN2C(=O)[C@H](CC(C)C)N(C)C(=O)[C@@H](C(C)C)NC1=O [Design D8.21, v*LpLv*LpL] (cyclo(L[dV][NMeL][dP]L[dV][NMeL][dP]))
0.215 ×10⁻⁶ cm/s | – | CC(C)C[C@@H]1C(=O)N[C@@H](C(C)C)C(=O)N[C@@H](C)C(=O)N2CCC[C@H]2C(=O)N2CCC[C@@H]2C(=O)N[C@@H](C(C)C)C(=O)N[C@@H](C)C(=O)N(C)[C@@H](CC(C)C)C(=O)N1C [Design D8.22, APpVA*L*lV] (cyclo(A[NMeL][dNMeL]VAP[dP]V))
1.28 ×10⁻⁶ cm/s | – | CC(C)C[C@@H]1C(=O)N(C)[C@H](CC(C)C)C(=O)N[C@H](CC(C)C)C(=O)N[C@@H](C(C)C)C(=O)N2CCC[C@@H]2C(=O)N2CCC[C@H]2C(=O)N[C@H](CC(C)C)C(=O)N[C@@H](C(C)C)C(=O)N1C [Design D8.23, lV*l*llVpP] (cyclo([dL]V[dNMeL][dNMeL][dL]V[dP]P))
0.824 ×10⁻⁶ cm/s | – | CC(C)C[C@@H]1C(=O)N[C@H](C)C(=O)N(C)[C@H](CC(C)C)C(=O)N2CCC[C@@H]2C(=O)N[C@H](CC(C)C)C(=O)N[C@@H](C)C(=O)N[C@H](CC(C)C)C(=O)N2CCC[C@@H]2C(=O)N1C [Design D8.25, lp*la*lplA] (cyclo(A[dL][dP][dNMeL][dA][dNMeL][dP][dL]))
4.32 ×10⁻⁶ cm/s | – | CC(C)C[C@@H]1NC(=O)[C@H](CC(C)C)N(C)C(=O)[C@H]2CCCN2C(=O)[C@@H](C)NC(=O)[C@@H](C)N(C)C(=O)[C@@H](C(C)C)NC(=O)[C@@H](CC(C)C)N(C)C(=O)[C@@H]2CCCN2C1=O [Design D8.30, ap*LLP*lv*a] (cyclo(LP[dNMeL][dV][dNMeA][dA][dP][NMeL]))
